The numbers were not newly measured in patent US20260345597A1, “LONG-ACTING AND SUSTAINED-RELEASE PREPARATION COMPOSITION OF LUMATEPERONE AND PREPARATION METHOD THEREOF” (SICHUAN KELUN PHARMACEUTICAL RESEARCH INSTITUTE CO., LTD., priority 2023, published 2026), which cites them from elsewhere.

The test system of this data set is patients with schizophrenia. The note with it: background.

Turning to `CN1CCN2c3c(cccc31)[C@@H]1CN(CCCC(=O)c3ccc(F)cc3)CC[C@@H]12` [lumateperone], the “adverse reactions such as weight gain and abnormal lipid metabolism” value was “less likely to cause adverse reactions such as weight gain and abnormal lipid metabolism”. For the setting “patients with schizophrenia”, the “effect on symptoms of schizophrenia” value is “alleviating positive symptoms while improving negative symptoms, depressive symptoms, and social functioning”; the “safety and tolerability profile” value is “superior safety and tolerability profiles”.
